Test results reported in patent US20090299036A1, “AGENT FOR PREVENTING ARTERIOSCLEROSIS, AGENT FOR SUPPRESSING VASCULAR INTIMAL THICKENING AND AGENT FOR IMPROVING VASCULAR ENDOTHELIAL FUNCTION” (Calpis Co, Ltd, priority 2006, published 2009).

What was measured:
[1] = test system: thoracic aorta of Wistar rats; assay: Endothelium-dependent vasodilator response of aorta ring from L-NAME-treated rats (Magnus apparatus); assay type: in vivo, rat
Protocol: Wistar rats (7 weeks of age, male) as the test animals were acclimatized for one week. A nitric oxide synthesis inhibitor, NG-nitro-L-arginine methyl ester hydrochloride (L-NAME, manufactured by SIGMA-ALDRICH CORP.) was dissolved in drinking water at the concentration of 1 g/L, and similarly, L-NAME and Val-Pro-Pro synthesized above at 1 g/L and 0.3 g/L, respectively, and L-NAME and Ile-Pro-Pro synthesized above at 1 g/L and 0.3 g/L, respectively. The rats were allowed free access to the prepared drinking water for one week. As a control, only the drinking water without L-NAME dissolved therein was given to a non-treatment group.
Then, the rats were subjected to fatal exsanguination under diethyl ether anesthesia. The thoracic aorta was taken out, cut into 2 mm long, and made into an aorta ring. The ring was set in a Magnus apparatus (product name “micro tissue organ bath MTOB-1Z”, manufactured by LABO SUPPORT CO., LTD.) filled with 5 ml of Tyrode's solution (composition: 158.3 mM of NaCl, 4.0 mM of KCl, 2.0 mM of CaCl2, […] of MaCl2, 0.42 mM of NaH2PO4, 10.0 mM of NaHCO3, and 5.6 mM of glucose; pH 7.4, 37±0.5° C.), and allowed to equilibrate with the resting tension of 2.0 g. The aorta ring was then allowed to constrict with 1 μM of phenylephrine. […] The degree of vasodilation by the response was determined as a ratio to the constriction with 1 μM of phenylephrine. […]

arteriosclerosis = conditions: Non-patent Publication 5; cited from earlier work

CCOC(=O)[C@H](CCc1ccccc1)N[C@@H](C)C(=O)N1CCC[C@H]1C(=O)O [enalapril]
Degree of vasodilation ([1]; drinking water for one week: L-NAME 1 g/L, peptide 0.3 g/L, enalapril 0.5 mg/L, 10 μM acetylcholine, ratio to constriction with 1 μM phenylephrine, group average): 31.6% | degree of vasodilation compared to the group given only L-NAME ([1]; given together with L-NAME): no significant difference | arteriosclerosis inhibitory effect (arteriosclerosis): does not result in an arteriosclerosis inhibitory effect
